“And” between values parts separate entries of the source, which are not always exact repeats. Equal values may be shown once.
Key:
wild type CHO cells [1] = experiment: [35S]GTPγS binding on wild type CHO membranes; assay type: biochemical
Procedure: a) Methods—Determination of [^35S ]GTPγS binding to the G-proteins was carried out according to a modified procedure of Lazareno (Methods Mol. Biol., 83:107-116, 1997). These experiments were performed for a first functional evaluation of the receptor on the level of a membrane preparation. […] For testing agonistic activity, 175 μl of diluted membranes was pre-incubated in the buffer described above together with 25 μl of buffer and 25 μl of varying concentrations of the compound in a total volume of 225 μl. After a 20 minute pre-incubation period at 30° C., 25 μl of [^35S]GTPγS was added to a final concentration of 0.25 nM and the assay mixtures were further incubated for 20 minutes at 30° C. […] The amount of bound radioactivity on the filter unit was determined after drying of the filters and scintillant addition (Microscint-O; Packard Company) by liquid scintillation counting. Basal [^35S]GTPγS binding was measured in absence of compounds. Stimulation by agonist was calculated as the percentage increase above basal levels. The sigmoid agonist concentration-response curves were analyzed by non-linear regression using the GraphPad Prism program. The different concentration points were run in duplicates and the reported data were retrieved from independent experiments.

[2] = molecular target: T1, adenine binding rat receptor (Rattus norvegicus, UniProt Q7TN49); experiment: [3H]adenine competition binding on CHO membranes transiently transfected; details: transfected cells, 15 nM [3H]adenine
T1 construct: expressed in transfected cells; host or cells: CHO cells, transient, lipofectamine PLUS
T1 sequence (Q7TN49 1-304): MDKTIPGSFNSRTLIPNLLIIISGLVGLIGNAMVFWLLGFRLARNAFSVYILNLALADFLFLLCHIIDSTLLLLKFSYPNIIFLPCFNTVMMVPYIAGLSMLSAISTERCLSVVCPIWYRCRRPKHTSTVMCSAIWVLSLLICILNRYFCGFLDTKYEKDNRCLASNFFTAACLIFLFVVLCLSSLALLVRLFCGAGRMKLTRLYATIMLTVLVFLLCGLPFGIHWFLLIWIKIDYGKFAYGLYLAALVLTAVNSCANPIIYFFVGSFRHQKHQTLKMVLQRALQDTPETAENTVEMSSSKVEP
Procedure: (§1) The membranes were prepared as total particulate fractions. The cell lines were cultured to 906 confluency on 145 mm petri dishes and treated with 5 mM sodium butyrate, 24 hours before collection. The culturing medium was removed and the cells were washed twice with ice cold phosphate buffered saline (PBS without Ca^2+ and Mg^2+), scraped from the plates in 50 mM Tris-HCl buffer, pH 7.4, and collected by centrifugation (10 minutes at 16,000 RPM at 4° C.). The cell pellet was re-suspended in hypotonic 5 mM Tris-HCl buffer, pH 7.4, and homogenized with an Ultra Turrax homogenizer (Janker Kunkel, Germany). The homogenate was centrifuged at 18,000 RPM for 20 minutes at 4° C. The final pellet was re-suspended in 50 mM Tris-HCl buffer, pH 7.4 and stored in aliquots at −70° C. A protein determination was performed using the Bradford protein assay (Biorad, Germany) using bovine serum albumin (BSA) as standard.
(§2) A) Methods—[3H]Adenine binding experiments were performed to characterize wild type cell lines before transfection as well as transiently and permanently transfected cell lines. Membranes were thawed on ice and diluted in 50 mM HEPES buffer, pH 7.4 supplemented with 10 mM MgCl2 and 1 mM EGTA. […] Both assays were carried out in a final volume of 500 μl, using 18 μg of membrane protein for the transfected CHO cells and 30 μg of membrane protein for the wild type CHO cells for the saturation binding. For competition binding experiments, 15 and 50 μg of membrane protein was used for the transfected and wild type cells, respectively. The reaction was terminated by rapid filtration through Whatman GF/B filters using a Brandel multi-channel cell harvester (96 wells). The filters were washed three times with 3 ml ice cold 50 mM HEPES buffer, pH 7.4, transferred to liquid scintillation vials and 3 ml of scintillation fluid (Ultima Gold MV, Packard, Netherlands) was added. Samples were counted in a β-scintillation counter after at least 6 hours to permit the glass fiber filters to become uniformly translucent.

wild type CHO cells [3] = experiment: [3H]adenine competition binding on wild type CHO membranes; details: 15 nM [3H]adenine
Procedure: as §1, with “The cell lines were cultured to 906 confluency on 145 mm petri dishes and treated with 5 mM sodium butyrate, 24 hours before collection.” left out
as §2, with “Membranes” for “A) Methods—[3H]Adenine binding experiments were performed to characterize wild type cell lines before transfection as well as transiently and permanently transfected cell lines. Membranes”

Row | Compound | % stim. (wild type CHO cells [1]; mean of n experiments) [%] | % stim. (wild type CHO cells [1]; single experiments) [%] | pEC50 (wild type CHO cells [1]; single experiments) | IC50 ([2]; mean of n experiments) [nM] | Ki ([2]; mean of n experiments) [µM] | IC50 ([2]; single experiments) | Ki ([2]; single experiments) | pIC50 (wild type CHO cells [3]; mean of n experiments) | pIC50 (wild type CHO cells [3]; single experiments) | pIC50 ([2]; mean of n experiments) | pIC50 ([2]; single experiments) | Ki (wild type CHO cells [3]; mean of n experiments) [nM]
1 | Cn1cnc2ncnc-2c1N [1-Methyladenine] | 0 | 0 | <4 | 7080 | 4.39 | 6170 nM and 9770 nM and 5750 nM | 3.79 µM and 6.06 µM and 3.57 µM | <4 | <4 |  |  | 
2 | Nc1ncnc2c1ncn2[C@@H]1O[C@H](COP(=O)(O)O)[C@@H](O)[C@H]1O [AMP] | 0 | 0 | <4 |  | 24.5 |  | 31.9 µM and 20.8 µM and 21.2 µM | <4 | <4 | 4.41 | 4.29 and 4.47 and 4.46 | 
3 | Nc1ncnc2nc[nH]c12 [Adenine, adenine] | 0 | 0 | <5 | 28.2 | 0.018 | 17.4 nM and 36.3 nM and 30.9 nM and 33.1 nM | 0.011 µM and 0.022 µM and 0.019 µM and 0.02 µM | 6.87 |  |  |  | 85
